In ChEMBL document CHEMBL5550199, “Rational In Silico Design of Selective TMPRSS6 Peptidomimetic Inhibitors via Exploitation of the S2 Subpocket” (J Med Chem, 2024):
The source made the active and inactive calls. No cut-off for these calls is given here.

target: T1, Suppressor of tumorigenicity 14 protein (Homo sapiens, UniProt Q9Y5Y6); assay: Binding affinity to recombinant human Matriptase using Boc-QAR-AMC as substrate assessed as inhibition constant by fluorescence based analysis; conditions: not given
T1 sequence (Q9Y5Y6 whole entry): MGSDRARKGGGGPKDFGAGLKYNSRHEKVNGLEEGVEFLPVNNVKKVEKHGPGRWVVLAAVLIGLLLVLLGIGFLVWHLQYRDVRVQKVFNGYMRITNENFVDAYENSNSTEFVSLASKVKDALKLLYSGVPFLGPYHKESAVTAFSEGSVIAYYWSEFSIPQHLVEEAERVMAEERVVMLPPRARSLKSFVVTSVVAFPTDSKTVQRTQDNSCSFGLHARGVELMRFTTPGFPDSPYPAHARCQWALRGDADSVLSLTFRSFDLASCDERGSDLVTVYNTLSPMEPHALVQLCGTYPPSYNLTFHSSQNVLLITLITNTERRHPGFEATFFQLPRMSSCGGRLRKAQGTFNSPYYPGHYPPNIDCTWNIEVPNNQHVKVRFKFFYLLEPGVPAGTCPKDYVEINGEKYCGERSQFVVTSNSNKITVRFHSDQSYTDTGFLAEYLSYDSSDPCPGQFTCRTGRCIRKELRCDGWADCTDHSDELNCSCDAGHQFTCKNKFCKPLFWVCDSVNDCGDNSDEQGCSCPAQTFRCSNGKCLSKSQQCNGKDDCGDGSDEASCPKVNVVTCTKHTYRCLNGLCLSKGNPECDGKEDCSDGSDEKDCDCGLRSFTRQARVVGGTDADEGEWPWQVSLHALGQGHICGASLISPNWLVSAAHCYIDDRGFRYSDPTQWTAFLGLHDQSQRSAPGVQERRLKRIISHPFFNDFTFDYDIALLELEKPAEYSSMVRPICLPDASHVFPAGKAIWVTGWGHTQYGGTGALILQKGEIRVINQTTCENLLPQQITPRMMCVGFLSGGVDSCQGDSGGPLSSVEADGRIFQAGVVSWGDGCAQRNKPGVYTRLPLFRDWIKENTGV

Compound | Ki [nM]
N=C(N)NCCC[C@H](NC(=O)[C@H](Cc1ccccc1)NC(=O)[C@H](Cc1cscn1)NC(=O)CCc1ccccc1)C(=O)c1nc2ccccc2s1 | 4.1
N=C(N)NCCC[C@H](NC(=O)[C@H](Cc1ccc(OCc2ccccc2)cc1)NC(=O)[C@H](Cc1cscn1)NC(=O)CCc1ccccc1)C(=O)c1nc2ccccc2s1 | 26.8
CC[C@H](C)[C@H](NC(=O)[C@H](Cc1cscn1)NC(=O)CCc1ccccc1)C(=O)N[C@@H](CCCNC(=N)N)C(=O)c1nc2ccccc2s1 | 11.3
N=C(N)NCCC[C@H](NC(=O)[C@@H](NC(=O)[C@H](Cc1cscn1)NC(=O)CCc1ccccc1)c1ccccc1)C(=O)c1nc2ccccc2s1 | 33.6

test system: not listed separately; assay: Metabolic stability in Sprague-Dawley rat microsome assessed as intrinsic clearance measured for 120 mins in presence of NADPH by UPLC-MS analysis; type: ADME; conditions: microsomes, 2 h

Compound | CLH [µL/min/mg]
N=C(N)NCCC[C@H](NC(=O)[C@@H](NC(=O)[C@H](CCc1ccccc1)NC(=O)CCc1ccccc1)C1CCCCC1)C(=O)c1nc2ccccc2s1 | 1.4

target: Coagulation factor X (Homo sapiens, UniProt P00742); assay: Inhibition of recombinant human FXA using Boc-QAR-AMC as substrate assessed as inhibition constant by fluorescence based analysis; conditions: not given
Sequence (P00742 41-179 limits assumed): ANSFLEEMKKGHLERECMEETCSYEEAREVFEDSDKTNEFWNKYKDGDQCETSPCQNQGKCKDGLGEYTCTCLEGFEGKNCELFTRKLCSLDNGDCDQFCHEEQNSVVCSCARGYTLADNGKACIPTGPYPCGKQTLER
Sequence (P00742 235-488 limits assumed): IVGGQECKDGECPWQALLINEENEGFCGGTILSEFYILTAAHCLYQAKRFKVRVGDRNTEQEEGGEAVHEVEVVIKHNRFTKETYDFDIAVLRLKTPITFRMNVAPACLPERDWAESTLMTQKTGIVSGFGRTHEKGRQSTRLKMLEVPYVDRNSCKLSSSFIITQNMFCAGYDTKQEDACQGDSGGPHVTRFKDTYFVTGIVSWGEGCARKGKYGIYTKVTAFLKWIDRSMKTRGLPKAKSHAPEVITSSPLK

Compound | Ki [nM]
N=C(N)NCCC[C@H](NC(=O)[C@@H](NC(=O)[C@H](CCc1ccccc1)NC(=O)CCc1ccccc1)C1CCCCC1)C(=O)c1nc2ccccc2s1 | > 10000

target: Prothrombin (Homo sapiens, UniProt P00734); assay: Inhibition of recombinant human thrombin using Boc-QAR-AMC as substrate assessed as inhibition constant by fluorescence based analysis; conditions: not given

Compound | Ki [nM]
N=C(N)NCCC[C@H](NC(=O)[C@@H](NC(=O)[C@H](CCc1ccccc1)NC(=O)CCc1ccccc1)C1CCCCC1)C(=O)c1nc2ccccc2s1 | 395

species on record: Homo sapiens; assay: (§1) Selectivity index, ratio of Ki for mixed inhibition of recombinant human Matriptase using Boc-QAR-AMC as substrate assessed as inhibition constant by fluorescence based analysis to Ki for competitive tight binding inhibition of recombinant human TMPRSS6 using Boc-QAR-AMC as substrate assessed as inhibition constant by fluorescence based analysis; conditions: not given

Compound | Ratio Ki
N=C(N)NCCC[C@H](NC(=O)[C@@H](NC(=O)[C@H](CCc1ccccc1)NC(=O)CCc1ccccc1)C1CCCCC1)C(=O)c1nc2ccccc2s1 | 119

target: T2, Transmembrane protease serine 6 (Homo sapiens, UniProt Q8IU80); assay: Binding affinity to recombinant human TMPRSS6 using Boc-QAR-AMC as substrate assessed as inhibition constant by fluorescence based analysis; conditions: not given
T2 sequence (Q8IU80 whole entry): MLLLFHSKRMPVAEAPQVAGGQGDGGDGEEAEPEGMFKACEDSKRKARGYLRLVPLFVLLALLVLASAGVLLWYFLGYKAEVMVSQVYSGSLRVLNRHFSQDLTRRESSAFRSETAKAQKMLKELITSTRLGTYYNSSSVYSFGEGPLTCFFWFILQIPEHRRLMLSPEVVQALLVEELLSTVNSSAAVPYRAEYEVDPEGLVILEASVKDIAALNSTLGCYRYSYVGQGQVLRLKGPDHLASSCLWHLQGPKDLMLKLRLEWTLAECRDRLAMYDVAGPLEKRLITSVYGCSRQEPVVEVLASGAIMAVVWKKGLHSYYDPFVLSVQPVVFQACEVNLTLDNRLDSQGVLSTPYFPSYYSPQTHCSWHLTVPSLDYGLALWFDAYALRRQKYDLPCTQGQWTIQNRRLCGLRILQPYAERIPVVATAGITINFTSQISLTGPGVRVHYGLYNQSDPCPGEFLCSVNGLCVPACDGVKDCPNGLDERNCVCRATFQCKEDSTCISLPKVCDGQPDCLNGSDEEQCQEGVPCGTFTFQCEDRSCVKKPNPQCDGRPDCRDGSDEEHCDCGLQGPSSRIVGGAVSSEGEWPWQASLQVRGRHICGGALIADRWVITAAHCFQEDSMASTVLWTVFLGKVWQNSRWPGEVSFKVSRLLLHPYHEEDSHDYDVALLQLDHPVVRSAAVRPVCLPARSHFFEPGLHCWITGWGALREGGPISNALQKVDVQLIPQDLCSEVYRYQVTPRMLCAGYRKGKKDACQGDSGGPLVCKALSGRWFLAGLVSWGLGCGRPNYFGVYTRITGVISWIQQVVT

Compound | Ki [nM]
N=C(N)NCCC[C@H](NC(=O)[C@H](Cc1ccccc1)NC(=O)[C@H](Cc1cscn1)NC(=O)CCc1ccccc1)C(=O)c1nc2ccccc2s1 | 1.4
N=C(N)NCCC[C@H](NC(=O)[C@H](Cc1ccc(OCc2ccccc2)cc1)NC(=O)[C@H](Cc1cscn1)NC(=O)CCc1ccccc1)C(=O)c1nc2ccccc2s1 | 5.6
CC[C@H](C)[C@H](NC(=O)[C@H](Cc1cscn1)NC(=O)CCc1ccccc1)C(=O)N[C@@H](CCCNC(=N)N)C(=O)c1nc2ccccc2s1 | 1.2
N=C(N)NCCC[C@H](NC(=O)[C@@H](NC(=O)[C@H](Cc1cscn1)NC(=O)CCc1ccccc1)c1ccccc1)C(=O)c1nc2ccccc2s1 | 12.5

species on record: Homo sapiens; assay: as §1, with “binding affinity to” for “mixed inhibition of”, “for” for “for competitive tight”, “affinity to” for “inhibition of”; conditions: not given

Compound | Ratio Ki
N=C(N)NCCC[C@H](NC(=O)[C@H](Cc1ccccc1)NC(=O)[C@H](Cc1cscn1)NC(=O)CCc1ccccc1)C(=O)c1nc2ccccc2s1 | 2.9
N=C(N)NCCC[C@H](NC(=O)[C@H](Cc1ccc(OCc2ccccc2)cc1)NC(=O)[C@H](Cc1cscn1)NC(=O)CCc1ccccc1)C(=O)c1nc2ccccc2s1 | 4.8
CC[C@H](C)[C@H](NC(=O)[C@H](Cc1cscn1)NC(=O)CCc1ccccc1)C(=O)N[C@@H](CCCNC(=N)N)C(=O)c1nc2ccccc2s1 | 9.4
N=C(N)NCCC[C@H](NC(=O)[C@@H](NC(=O)[C@H](Cc1cscn1)NC(=O)CCc1ccccc1)c1ccccc1)C(=O)c1nc2ccccc2s1 | 2.6

target: Furin (Homo sapiens, UniProt P09958); assay: Inhibition of recombinant human furin using Boc-RVRR-AMC as substrate assessed as inhibition constant by fluorescence based analysis; conditions: not given
Sequence (P09958 whole entry): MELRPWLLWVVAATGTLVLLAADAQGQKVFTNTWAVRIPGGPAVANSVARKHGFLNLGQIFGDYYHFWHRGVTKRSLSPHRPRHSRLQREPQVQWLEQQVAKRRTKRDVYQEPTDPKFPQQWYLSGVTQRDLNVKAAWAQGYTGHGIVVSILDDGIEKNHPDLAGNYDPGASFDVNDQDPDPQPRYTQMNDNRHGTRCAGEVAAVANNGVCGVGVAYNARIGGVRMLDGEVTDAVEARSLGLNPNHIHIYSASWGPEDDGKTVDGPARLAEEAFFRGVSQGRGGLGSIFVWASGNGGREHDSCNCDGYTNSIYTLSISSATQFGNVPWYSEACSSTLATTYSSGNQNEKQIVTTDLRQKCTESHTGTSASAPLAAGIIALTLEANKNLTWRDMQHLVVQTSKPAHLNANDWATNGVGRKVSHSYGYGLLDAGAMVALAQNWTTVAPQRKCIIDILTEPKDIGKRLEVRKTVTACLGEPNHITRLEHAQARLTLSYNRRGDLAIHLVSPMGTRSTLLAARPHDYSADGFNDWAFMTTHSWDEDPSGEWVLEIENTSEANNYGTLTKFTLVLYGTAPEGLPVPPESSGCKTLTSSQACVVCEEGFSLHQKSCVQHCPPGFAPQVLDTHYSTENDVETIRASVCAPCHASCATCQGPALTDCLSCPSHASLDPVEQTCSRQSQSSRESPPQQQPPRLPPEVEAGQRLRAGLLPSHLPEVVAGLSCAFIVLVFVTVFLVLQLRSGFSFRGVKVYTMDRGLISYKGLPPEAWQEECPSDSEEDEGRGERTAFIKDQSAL

Compound | Ki [nM]
N=C(N)NCCC[C@H](NC(=O)[C@@H](NC(=O)[C@H](CCc1ccccc1)NC(=O)CCc1ccccc1)C1CCCCC1)C(=O)c1nc2ccccc2s1 | > 10000

species on record: Homo sapiens; assay: Selectivity index, ratio of IC50 for inhibition of human Matriptase transfected in HEK293SL cells using Boc-QAR-AMC as substrate to IC50 for inhibition of human TMPRSS6 transfected in HEK293SL cells using Boc-QAR-AMC as substrate; type: cell-based; conditions: not given

Compound | Ratio IC50
N=C(N)NCCC[C@H](NC(=O)[C@@H](NC(=O)[C@H](CCc1ccccc1)NC(=O)CCc1ccccc1)C1CCCCC1)C(=O)c1nc2ccccc2s1 | 18

target: T2, Transmembrane protease serine 6; assay: Inhibition of human TMPRSS6 transfected in HEK293SL cells using Boc-QAR-AMC as substrate measured for 24 hrs; type: cell-based; conditions: not given

Compound | IC50 [nM]
N=C(N)NCCC[C@H](NC(=O)[C@@H](NC(=O)[C@H](CCc1ccccc1)NC(=O)CCc1ccccc1)C1CCCCC1)C(=O)c1nc2ccccc2s1 | 332

target: T3, Suppressor of tumorigenicity 14 protein (Homo sapiens) (UniProt Q9Y5Y6); assay: Inhibition of recombinant human Matriptase at 100 nM by Michaelis-Menten analysis relative to control; conditions: not given
T3 sequence (whole entry): T1 sequence (Q9Y5Y6 whole entry)

Compound | inhibition
CC[C@H](NC(=O)[C@H](Cc1cscn1)NC(=O)CCc1ccccc1)C(=O)N[C@@H](CCCNC(=N)N)C(=O)c1nc2ccccc2s1 | 20%
CCCC[C@H](NC(=O)[C@H](Cc1cscn1)NC(=O)CCc1ccccc1)C(=O)N[C@@H](CCCNC(=N)N)C(=O)c1nc2ccccc2s1 | 20%
N=C(N)NCCC[C@H](NC(=O)[C@H](Cc1ccc(C(=O)c2ccccc2)cc1)NC(=O)[C@H](Cc1cscn1)NC(=O)CCc1ccccc1)C(=O)c1nc2ccccc2s1 | inactive
N=C(N)NCCC[C@H](NC(=O)[C@H](CC12CC3CC(CC(C3)C1)C2)NC(=O)[C@H](Cc1cscn1)NC(=O)CCc1ccccc1)C(=O)c1nc2ccccc2s1 | inactive
CCC[C@H](NC(=O)[C@H](Cc1cscn1)NC(=O)CCc1ccccc1)C(=O)N[C@@H](CCCNC(=N)N)C(=O)c1nc2ccccc2s1 | 20%

test system: not listed separately; assay: Apparent Permeability of compound in PBS buffer at pH 7.4 incubated for 17 hrs by PAMPA assay; type: ADME; conditions: pH 7.4, 17 h

Compound | Papp
N=C(N)NCCC[C@H](NC(=O)[C@@H](NC(=O)[C@H](CCc1ccccc1)NC(=O)CCc1ccccc1)C1CCCCC1)C(=O)c1nc2ccccc2s1 | 0.01 10^-6 cm/s

test system: not listed separately; assay: Stability in Sprague-Dawley rat plasma assessed as parent compound remaining at 24 hrs by UPLC-MS analysis; type: ADME, cell-free; conditions: not given

Compound | Stability [%]
N=C(N)NCCC[C@H](NC(=O)[C@@H](NC(=O)[C@H](CCc1ccccc1)NC(=O)CCc1ccccc1)C1CCCCC1)C(=O)c1nc2ccccc2s1 | 100

test system: Caco-2; assay: Disruption of epithelial integrity in human Caco-2 cells assessed as change in TEER modulation after 8 days; type: functional, cell-based; conditions: Caco-2, 192 h

Compound | IC50 [nM]
N=C(N)NCCC[C@H](NC(=O)[C@@H](NC(=O)[C@H](CCc1ccccc1)NC(=O)CCc1ccccc1)C1CCCCC1)C(=O)c1nc2ccccc2s1 | 6100

target: T2, Transmembrane protease serine 6; assay: Competitive tight binding inhibition of recombinant human TMPRSS6 using Boc-QAR-AMC as substrate assessed as inhibition constant by fluorescence based analysis; conditions: not given

Compound | Ki [nM]
N=C(N)NCCC[C@H](NC(=O)[C@@H](NC(=O)[C@H](CCc1ccccc1)NC(=O)CCc1ccccc1)C1CCCCC1)C(=O)c1nc2ccccc2s1 | 5.2

target: T1, Suppressor of tumorigenicity 14 protein; assay: Inhibition of human Matriptase transfected in HEK293SL cells using Boc-QAR-AMC as substrate measured for 24 hrs; type: cell-based; conditions: not given

Compound | IC50 [nM]
N=C(N)NCCC[C@H](NC(=O)[C@@H](NC(=O)[C@H](CCc1ccccc1)NC(=O)CCc1ccccc1)C1CCCCC1)C(=O)c1nc2ccccc2s1 | 6070

target: T4, Transmembrane protease serine 6 (Homo sapiens) (UniProt Q8IU80); assay: Inhibition of recombinant human TMPRSS6 at 100 nM by Michaelis-Menten analysis relative to control; conditions: not given
T4 sequence (whole entry): T2 sequence (Q8IU80 whole entry)

Compound | inhibition
CC[C@H](NC(=O)[C@H](Cc1cscn1)NC(=O)CCc1ccccc1)C(=O)N[C@@H](CCCNC(=N)N)C(=O)c1nc2ccccc2s1 | 20%
CCCC[C@H](NC(=O)[C@H](Cc1cscn1)NC(=O)CCc1ccccc1)C(=O)N[C@@H](CCCNC(=N)N)C(=O)c1nc2ccccc2s1 | 20%
N=C(N)NCCC[C@H](NC(=O)[C@H](Cc1ccc(C(=O)c2ccccc2)cc1)NC(=O)[C@H](Cc1cscn1)NC(=O)CCc1ccccc1)C(=O)c1nc2ccccc2s1 | inactive
N=C(N)NCCC[C@H](NC(=O)[C@H](CC12CC3CC(CC(C3)C1)C2)NC(=O)[C@H](Cc1cscn1)NC(=O)CCc1ccccc1)C(=O)c1nc2ccccc2s1 | inactive
CCC[C@H](NC(=O)[C@H](Cc1cscn1)NC(=O)CCc1ccccc1)C(=O)N[C@@H](CCCNC(=N)N)C(=O)c1nc2ccccc2s1 | 20%

target: T1, Suppressor of tumorigenicity 14 protein; assay: Mixed inhibition of recombinant human Matriptase using Boc-QAR-AMC as substrate assessed as inhibition constant by fluorescence based analysis; conditions: not given

Compound | Ki [nM]
N=C(N)NCCC[C@H](NC(=O)[C@@H](NC(=O)[C@H](CCc1ccccc1)NC(=O)CCc1ccccc1)C1CCCCC1)C(=O)c1nc2ccccc2s1 | 618

test system: not listed separately; assay: Metabolic stability in Sprague-Dawley rat microsome assessed as half life measured for 120 mins in presence of NADPH by UPLC-MS analysis; type: ADME; conditions: microsomes, 2 h

Compound | t1/2 [h]
N=C(N)NCCC[C@H](NC(=O)[C@@H](NC(=O)[C@H](CCc1ccccc1)NC(=O)CCc1ccccc1)C1CCCCC1)C(=O)c1nc2ccccc2s1 | > 2
